For series [1], the target named is T1, rat histamine H3 receptor (Rattus norvegicus, UniProt Q9QYN8).
T1 construct: from tissue; host or cells: whole brain of male Sprague-Dawley rats, homogenate pellet
Nature of the series: In vitro saturation radioligand binding to rat brain homogenates. The procedure:
Animals (male Sprague-Dawley rats; Harlan, UK) were killed by cervical dislocation. Whole brains were immediately excised and placed into ice-cold Tris-HCl buffer (Tris […], pH 7.4; EDTA 5 mM), homogenised and centrifuged at approx 40,000 g for 10 min at 4°C (Beckman J2-21M/E). The pellet was resuspended in 25 ml of buffer and centrifuged as previously, then the final pellet was resuspended in 10 ml of ice cold Tris buffer and stored at −50°C until required. Protein content was analysed using Bio-Rad reagent; absorbance was read on a spectrophotometer at 562 nm. [^125I]WYE230949 binding assays were carried out in a final incubation volume of 500 µl containing Tris-HCl buffer (Tris […], pH 7.4; EDTA 5 mM), brain homogenates (1.47 to 2.27 mg/ml of protein) and [^125I]WYE230949 (0.04–102 nM). Non-specific binding was defined in the presence of 10 µM iodophenpropit. Samples were incubated at 30°C for 30 min, then filtered rapidly through Whatman GF/B filters (pre-treated with 0.3% polyethylenimine; Aldrich, UK) using a Brandel M24R cell harvester and the filters washed with 3×4 ml ice-cold Tris buffer. Radioactivity on the filters was determined by liquid scintillation counting a minimum of 48 h after filtration. All assays were performed in triplicate. Specific binding was determined by subtracting non-specific binding from total binding at each concentration; Kd and Bmax values derived using GraphPad Prism (version 4.03), and expressed as mean ±SEM of the triplicate assays.

The next series in a line: Ex vivo biodistribution. Format: in vivo, rat. As to conditions: for brain uptake: i.v. The procedure:
(§1) Animal experiments were conducted under the UK Animals (Scientific Procedures) Act 1986. This work was approved by the ethical review committee at the University of Glasgow (PPL: 60/3436) prior to the start of study. Naïve male Sprague-Dawley rats (Harlan, UK), weighing 217 to 352 g were either conscious or anaesthetised (2.5–3% isoflurane via a tracheostomy and artificial ventilation in 70/30% N2O/O2) for the duration of the experiment. Anaesthetised rats had their respiration and temperature monitored throughout. [^125I]WYE-230949 was administered via a femoral vein cannula to anaesthetised rats or via the lateral tail vein to conscious rats. The injected dose for each rat was calculated by measuring the syringe in a dose calibrator before and after [^125I]WYE-230949 administration. The radioactive and radiochemical amounts administered to individual rats ranged from 12.6 to 24.5 MBq and 0.32 to 0.70 µg/kg respectively in all in vivo studies.
Ex vivo biodistribution studies were performed in both conscious and anaesthetised rats in order to investigate the effect of anaesthesia on [^125I]WYE-230949 uptake. At 30 or 120 min following [^125I]WYE-230949 administration rats were killed by cervical dislocation. These time points were chosen based on the biological half life of [^125I]WYE-230949 determined from microSPECT imaging studies. Serial arterial blood sampling via a femoral artery cannula was performed in anaesthetised rats only. Blood was collected into heparin-coated tubes for analysis of plasma and into EDTA coated tubes for analysis of whole blood. At either 30 or 120 min following [^125I]WYE-230949 administration rats were killed by cervical dislocation and the brain, heart, lungs, kidneys and liver dissected. Samples were counted on a Gamma Scintillation Counter (Packard Cobra II D5010, UK) and counts per minute (cpm) converted to kBq using a standard curve. Radioactivity was corrected for decay of ^125I and expressed per sample weight and as a percentage of injected dose (%ID/g tissue).

A short description of series [2]: Ex vivo HPLC analysis of rat plasma and brain samples (% parent compound). Format: in vivo. The procedure:
as §1
After intravenous injection of [^125I]WYE-230949 blood samples were obtained by terminal cardiac puncture from anaesthetised rats or via the lateral tail vein from conscious rats at either 30 or 120 min. Rats were then immediately killed by cervical dislocation and the brain removed. Plasma was separated from whole blood by centrifugation and the protein precipitated by combining 400 µl of plasma with 400 µl of ice-cold acetonitrile. A sample (200 µl) of the supernatant was made up to 1 ml with distilled water and injected onto the HPLC column. The brain was homogenised in 2 ml saline, protein precipitated by addition of 2 ml of ice-cold acetonitrile. Samples were then centrifuged (1300 rpm; 200×g) and the supernatant added to 1 ml acetonitrile before being centrifuged again (1300 rpm; 200×g). The acetonitrile was evaporated under a stream of argon gas and the remaining 1 ml injected onto the HPLC column. Analysis of the brain and plasma metabolite samples was performed using the analytical HPLC methodology described. The % parent compound present was calculated.

In another series the target is T2, histamine H3 receptor (Rattus norvegicus, UniProt Q9QYN8).
T2 construct: Sections (20 µm) cut from a frozen rat brain were pre-incubated in Tris-HCl buffer; from tissue
Nature of the series: In vitro autoradiography on rat brain sections. Format: binding. As to conditions: 5 nM radioligand, non-specific with 5 µM iodophenpropit. The procedure: Sections (20 µm) cut from a frozen rat brain were pre-incubated in Tris-HCl buffer (50 mM, pH 7.4; EDTA 5 mM) for 15 min then incubated in 5 nM [^125I]WYE-230949 for 90 min at room temperature. Non-specific binding was defined in adjacent sections in the presence of 5 µM iodophenpropit dihydrobromide. Sections were washed (2×30 min in Tris buffer) and briefly (15 s) rinsed in distilled water before drying and apposition to Kodak Biomax for 24 h. These autoradiograms were generated only for visual comparison with those obtained ex vivo.

Values joined by “and” are separate entries in the source; they are usually repeats but may differ in a detail not shown here. Equal entries are not always repeated.

T1 sequence (Q9QYN8 whole entry): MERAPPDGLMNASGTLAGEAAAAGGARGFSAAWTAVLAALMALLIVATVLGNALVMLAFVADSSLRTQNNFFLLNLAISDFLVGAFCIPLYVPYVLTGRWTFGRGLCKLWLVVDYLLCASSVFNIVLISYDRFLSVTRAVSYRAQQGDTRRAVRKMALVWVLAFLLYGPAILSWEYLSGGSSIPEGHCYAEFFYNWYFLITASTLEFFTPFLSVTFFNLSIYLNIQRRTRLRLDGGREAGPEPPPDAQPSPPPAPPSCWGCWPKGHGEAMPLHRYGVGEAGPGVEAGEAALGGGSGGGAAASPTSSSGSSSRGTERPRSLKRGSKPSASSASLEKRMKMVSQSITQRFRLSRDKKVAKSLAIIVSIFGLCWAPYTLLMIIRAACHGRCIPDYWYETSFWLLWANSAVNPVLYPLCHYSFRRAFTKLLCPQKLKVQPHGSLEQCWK
T2 sequence (Q9QYN8 whole entry): as above

`O=C(c1ccc(Cn2cnc3cccc([125I])c32)cc1)N1CC[C@H](N2CCCC2)C1` [[^125I]WYE-230949]: in series [1] (at 6.6±0.1 nM, defined with 10 µM iodophenpropit, n = 3), the “Non-specific binding as % of total binding” value turned out to be 39±3%. Besides, the Bmax in series [1] (whole rat brain homogenates, one-site binding model, n = 8) was 508.6±34.9 fmol/mg protein and 509 fmol/mg protein. The brain uptake in the series “Ex vivo biodistribution” (30 min, anaesthetised rats) worked out at 0.11 %ID/g; in “Ex vivo biodistribution” (30 min, conscious rats), 0.06±0.01 %ID/g; in the series “Ex vivo biodistribution” (120 min, anaesthetised rats), 0.06±0.01 %ID/g; in “Ex vivo biodistribution” (120 min, conscious rats), 0.03±0.003 %ID/g. In addition, in “Ex vivo biodistribution” (anaesthetised rats, n = 6), the “peak radioactivity in plasma” value is 4.04±1.14 %ID/g of tissue. In addition, the “peak radioactivity in whole blood” value in “Ex vivo biodistribution” (anaesthetised rats, n = 6) is given as 3.14±0.26 %ID/g of tissue. Also, in the series “Ex vivo biodistribution” (anaesthetised rats, n = 6), the “time of peak radioactivity in plasma” value came to 0.38 ± 0.02 min. Besides, the “time of peak radioactivity in whole blood” value in the series “Ex vivo biodistribution” (anaesthetised rats, n = 6) worked out at 0.50 ± 0.03 min. For the same compound, the “parent compound remaining in plasma” value is “less than 38%” in series [2] (30 minutes after injection) and “less than 8%” in series [2] (after 120 min). Besides, the “Percentage of parent compound detected” value in series [2] (Brain, 30 min, anaesthetised) is listed as 27±4 (n = 3) %; in series [2] (Brain, 30 min, conscious), 46±2 (n = 4) %; in series [2] (Brain, 120 min, anaesthetised), 32±5 (n = 3) %; in series [2] (Brain, 120 min, conscious), 36±6 (n = 4) %; in series [2] (Plasma, 30 min, anaesthetised), 14±2 (n = 4) %; in series [2] (Plasma, 30 min, conscious) it was 38±9 (n = 6) %. For the same compound, the “Percentage of parent compound detected” value in series [2] (Plasma, 120 min, anaesthetised) was 3±3 (n = 4) %; in series [2] (Plasma, 120 min, conscious) it was 8±5 (n = 4) %. The “regional distribution of binding in rat brain” value on histamine H3 receptor is on record as “corresponded with known histamine H3 receptor distribution”.

The values are drawn from article PMC4277420, “Assessment of [^125I]WYE-230949 as a Novel Histamine H3 Receptor Radiopharmaceutical” (PLoS ONE, 2014).
